# What was measured:
# Type in all cases: cell-based
# CFTR ΔF508 = target: T1, CFTR ΔF508 (Homo sapiens, UniProt P13569, DEL508-508); assay: TECC assay in CFTR ΔF508, primary bronchial epithelial cells; conditions: bronchial epithelial cells from CF patients homozygous for ΔF508, treated with 3 μM VX809 or 0.15 μM GLPG2222; increase in Isc after forskolin
# T1 construct: bronchial epithelial cells isolated from CF patients homozygous for the CFTR ΔF508 mutation; host or cells: primary human bronchial epithelial cells (hAEC-CF) from CF patients homozygous for ΔF508, pre-treated with the corrector VX809 or GLPG2222
# T1 sequence (P13569 with tags, fused parts or gaps DEL508-508): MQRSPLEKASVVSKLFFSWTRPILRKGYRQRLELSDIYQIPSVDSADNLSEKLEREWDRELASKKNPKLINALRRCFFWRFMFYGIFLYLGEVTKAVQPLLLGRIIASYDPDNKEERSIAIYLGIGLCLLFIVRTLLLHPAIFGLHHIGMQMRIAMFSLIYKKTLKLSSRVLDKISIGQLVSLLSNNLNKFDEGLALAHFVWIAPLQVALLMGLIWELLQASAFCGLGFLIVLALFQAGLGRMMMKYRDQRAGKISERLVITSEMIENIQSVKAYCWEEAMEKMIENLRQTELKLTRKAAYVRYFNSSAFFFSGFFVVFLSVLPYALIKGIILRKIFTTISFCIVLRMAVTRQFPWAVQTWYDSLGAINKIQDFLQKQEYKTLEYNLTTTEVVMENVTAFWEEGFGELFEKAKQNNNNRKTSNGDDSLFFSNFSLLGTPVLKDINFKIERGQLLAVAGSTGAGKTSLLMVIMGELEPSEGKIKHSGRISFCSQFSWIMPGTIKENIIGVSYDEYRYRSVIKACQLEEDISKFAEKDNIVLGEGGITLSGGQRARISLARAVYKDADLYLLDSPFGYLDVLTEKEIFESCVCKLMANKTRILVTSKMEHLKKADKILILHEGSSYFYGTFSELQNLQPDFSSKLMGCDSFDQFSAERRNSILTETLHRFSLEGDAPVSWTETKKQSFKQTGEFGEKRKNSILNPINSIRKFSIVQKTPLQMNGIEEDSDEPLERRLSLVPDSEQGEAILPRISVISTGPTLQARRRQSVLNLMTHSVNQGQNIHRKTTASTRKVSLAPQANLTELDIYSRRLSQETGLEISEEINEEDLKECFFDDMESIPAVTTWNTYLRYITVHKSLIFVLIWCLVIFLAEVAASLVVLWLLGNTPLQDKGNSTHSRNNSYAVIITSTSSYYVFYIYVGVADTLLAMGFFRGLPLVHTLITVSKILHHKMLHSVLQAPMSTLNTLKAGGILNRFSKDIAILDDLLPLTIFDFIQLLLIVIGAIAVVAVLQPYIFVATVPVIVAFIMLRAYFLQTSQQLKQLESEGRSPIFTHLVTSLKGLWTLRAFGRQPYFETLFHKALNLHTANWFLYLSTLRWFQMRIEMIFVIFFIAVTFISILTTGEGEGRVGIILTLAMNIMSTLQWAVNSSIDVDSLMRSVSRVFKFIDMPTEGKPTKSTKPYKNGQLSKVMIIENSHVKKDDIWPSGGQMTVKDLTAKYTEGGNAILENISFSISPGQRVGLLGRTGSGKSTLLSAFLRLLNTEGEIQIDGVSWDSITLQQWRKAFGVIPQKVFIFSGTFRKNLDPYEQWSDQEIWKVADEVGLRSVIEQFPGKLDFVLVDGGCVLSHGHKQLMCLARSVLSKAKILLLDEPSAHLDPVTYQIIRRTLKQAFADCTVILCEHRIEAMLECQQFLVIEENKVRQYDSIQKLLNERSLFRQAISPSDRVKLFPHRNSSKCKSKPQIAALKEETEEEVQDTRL
# Experimental: The TECC (Transepithelial Clamp Circuit, EP-design) assay measures the functionality of the cystic fibrosis Transmembrane Conductance regulator (CFTR) by measuring the short circuit current (ISC) generated over the basolateral and apical membrane of lung epithelial cells. In TECC the transepithelial potential PD and transepithelial resistance (Rt) are measured in an open circuit and transformed to ISC using Ohm's law. 24 Wells can be measured simultaneously allowing a higher throughput compared to Ussing chambers.
# For this purpose, bronchial epithelial cells isolated from CF patients homozygous for the CFTR ΔF508 mutation (hAEC-CF, McGill, UNC) are plated on type IV collagen-coated Transwell® supports (Costar). Human airway epithelia are generated by provision of an air liquid interface for 21 days to form well-differentiated polarized cultures that resemble in vivo pseudo-stratified ciliated epithelium (Fulcher, M. L., Gabriel, S., Burns, K. A., Yankaskas, J. R., Randell, S. H., 2005. Well-differentiated human airway epithelial cell cultures. Methods Mol. Med. 107, 183-206). […]
# When subjected to this protocol, the following values were obtained. The difference between ΔIsc measured as DMSO (baseline), and the ΔIsc measured with the compound tested.
# CFTR-S549N = target: T2, CFTR-S549N (Homo sapiens, UniProt P13569, S549N); assay: YFP-halide influx assay for the CFTR-S549N
# T2 construct: expressed in transfected cells; HEK293 with plasmid vectors inferred from the G551D protocol, to which the assay is called similar
# T2 sequence (P13569 whole entry S549N): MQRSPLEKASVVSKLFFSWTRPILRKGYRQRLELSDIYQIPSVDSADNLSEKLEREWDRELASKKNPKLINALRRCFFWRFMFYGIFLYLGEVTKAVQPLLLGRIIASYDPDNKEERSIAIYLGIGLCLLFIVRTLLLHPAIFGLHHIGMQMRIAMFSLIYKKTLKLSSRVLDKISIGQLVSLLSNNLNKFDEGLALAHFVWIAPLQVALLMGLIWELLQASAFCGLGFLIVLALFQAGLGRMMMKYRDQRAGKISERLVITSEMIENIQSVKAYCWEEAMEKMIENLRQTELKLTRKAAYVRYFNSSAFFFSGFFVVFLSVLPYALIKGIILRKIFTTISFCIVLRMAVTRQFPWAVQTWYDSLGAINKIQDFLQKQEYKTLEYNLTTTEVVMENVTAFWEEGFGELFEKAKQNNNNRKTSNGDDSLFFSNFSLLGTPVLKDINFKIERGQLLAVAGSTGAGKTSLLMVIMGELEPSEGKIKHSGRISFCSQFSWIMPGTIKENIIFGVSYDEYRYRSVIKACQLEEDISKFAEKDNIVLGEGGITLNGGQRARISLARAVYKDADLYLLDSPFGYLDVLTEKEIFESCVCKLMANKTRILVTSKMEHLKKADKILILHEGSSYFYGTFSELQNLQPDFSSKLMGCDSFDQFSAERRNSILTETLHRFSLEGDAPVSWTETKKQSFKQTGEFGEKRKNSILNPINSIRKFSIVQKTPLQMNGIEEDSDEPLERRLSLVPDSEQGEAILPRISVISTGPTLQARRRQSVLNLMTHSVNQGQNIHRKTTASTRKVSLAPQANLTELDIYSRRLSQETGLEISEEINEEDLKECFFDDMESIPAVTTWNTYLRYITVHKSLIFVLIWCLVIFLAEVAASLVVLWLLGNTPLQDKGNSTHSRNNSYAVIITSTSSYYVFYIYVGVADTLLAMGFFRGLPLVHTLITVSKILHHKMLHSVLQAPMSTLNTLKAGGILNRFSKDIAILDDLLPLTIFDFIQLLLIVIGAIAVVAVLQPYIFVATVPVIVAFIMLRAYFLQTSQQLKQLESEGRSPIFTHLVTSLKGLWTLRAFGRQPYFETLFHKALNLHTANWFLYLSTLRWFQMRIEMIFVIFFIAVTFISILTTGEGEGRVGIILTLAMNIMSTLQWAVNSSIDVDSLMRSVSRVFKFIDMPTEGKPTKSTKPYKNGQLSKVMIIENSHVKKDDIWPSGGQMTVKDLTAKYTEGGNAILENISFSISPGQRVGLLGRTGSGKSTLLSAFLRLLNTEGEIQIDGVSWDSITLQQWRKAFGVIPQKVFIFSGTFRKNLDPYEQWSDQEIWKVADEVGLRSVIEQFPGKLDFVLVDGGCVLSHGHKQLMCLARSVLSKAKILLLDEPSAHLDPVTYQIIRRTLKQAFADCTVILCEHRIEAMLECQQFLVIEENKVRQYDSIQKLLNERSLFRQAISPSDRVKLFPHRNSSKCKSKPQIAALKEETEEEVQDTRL
# Source text: (§1) The YFP halide influx assay measured the functionality of the cystic fibrosis Transmembrane Conductance regulator (CFTR) channels. The assay was used to evaluate the capacity of compounds to increase the channel opening of existing mutant CFTR channels in the membrane. It makes use of the observation that the yellow fluorescent protein (YFP) variant YFP H148Q, I152L, F47L has its fluorescence substantially quenched by halide ions like Cl^− and I^− (Galietta, L. J. V., Haggie, P. M., Verkman, A. S., 2001. Green fluorescent protein-based halide indicators with improved chloride and iodide affinities. FEBS Lett. 499, 220-224. doi:10.1016/S0014-5793(01)02561-3).
# (§2) For this purpose, HEK293-cells were seeded in 96 well plates. During seeding, the cells were reverse-transfected with plasmid vectors that direct the expression of the CFTR G551D mutant and of the YFP reporter. Cells were incubated at 37° C., 5% CO2 for 24 hours so as to allow for sufficient expression of the CFTR protein.
# (§3) The I^−-induced quenching of fluorescence was recorded immediately after injection of I^− for 7 seconds. The capacity of a compound to increase the channel opening was directly correlated with the decrease in fluorescence, and was expressed as (1-(fluorescence after 7 seconds (F)/fluorescence before injection (F0))) and an EC50 was derived from a (1−F/F0) vs compound concentration plot.
# (§4) Similar YHA assays were developed for other channel gating defective or channel conductance defective CFTR mutants to determine effect of compound on channel activity. Examples of mutants are G178R, G1349D, S549N, R117H, R334W. This assay is also used for additional class I CFTR mutants, including G542X, W1282X; class II mutants including N1303K, and for class III mutants including S1251N; or wild-type CFTR.
# CFTR-R117H = target: T3, CFTR-R117H (Homo sapiens, UniProt P13569, R117H); assay: YFP-halide influx assay for the CFTR-R117H
# T3 construct: expressed in transfected cells; HEK293 with plasmid vectors inferred from the G551D protocol, to which the assay is called similar
# T3 sequence (P13569 whole entry R117H): as the sequence (P13569 whole entry S549N) above, with R117H, N549S counted along it
# Source text: as §1, §2, §3, §4
# CFTR-G178R = target: T4, CFTR-G178R (Homo sapiens, UniProt P13569, G178R); assay: YFP-halide influx assay for the CFTR-G178R
# T4 construct: expressed in transfected cells; HEK293 with plasmid vectors inferred from the G551D protocol, to which the assay is called similar
# T4 sequence (P13569 whole entry G178R): as the sequence (P13569 whole entry S549N) above, with G178R, N549S counted along it
# Source text: as §1, §2, §3, §4
# CFTR ΔF508 mutant = target: T5, CFTR ΔF508 mutant (Homo sapiens, UniProt P13569, DEL508-508); assay: YFP-halide influx assay for the CFTR-ΔF508 mutation; conditions: CFBE41o- cells expressing CFTR ΔF508 and YFP reporter, forskolin 10.67 μM; for EC50: (1-F/F0) vs concentration
# T5 construct: expressed in transfected cells; host or cells: CFBE41o- cells transduced with adenoviral vectors
# T5 sequence (P13569 with tags, fused parts or gaps DEL508-508): as the sequence (P13569 with tags, fused parts or gaps DEL508-508) above
# Source text: as §1, with “channels in the cystic fibrosis bronchial epithelium cell line CFBE41o-.” for “channels.”, “open probability” for “channel opening”, “existing” for “existing mutant”, “doi:10.1016/S0014-5793(01)02561-3; Nagai, T., Ibata, K., Park, E. S., Kubota, M., Mikoshiba, K., Miyawaki, A., 2002. A variant of yellow fluorescent protein with fast and efficient maturation for cell-biological applications. Nat. Biotechnol. 20, 87-90. doi:10.1038/nbt0102-87).” for “doi:10.1016/S0014-5793(01)02561-3).”
# For this purpose, CFBE410-cells were seeded in 384 well plates (3000 CFBE cells/well). One day after seeding, the CFBE cells were transduced with adenoviral vectors that direct the expression of the CFTR ΔF508 mutant and of the YFP reporter. Cells were incubated at 27° C., 5% CO2 for 24 hours so as to allow for the proper folding and migration to the membrane of the CFTR channel or treated with a CFTR modulator during 24 hours at 37° C.
# as §3, with “I-induced” for “I^−-induced”, “recorded on an” for “recorded”, “iodide” for “I^−”, “2 minutes on an FDSS/μCell (Hamamatsu).” for “7 seconds.”, “36” for “7”, “(1-F/F0)” for “(1−F/F0)”
# CFTR-G1349D = target: T6, CFTR-G1349D (Homo sapiens, UniProt P13569, G1349D); assay: YFP-halide influx assay for the CFTR-G1349D
# T6 construct: expressed in transfected cells; HEK293 with plasmid vectors inferred from the G551D protocol, to which the assay is called similar
# T6 sequence (P13569 whole entry G1349D): as the sequence (P13569 whole entry S549N) above, with N549S, G1349D counted along it
# Source text: as §1, §2, §3, §4
# CFTR G551D mutant = target: T7, CFTR G551D mutant (Homo sapiens, UniProt P13569, G551D); assay: YFP-halide influx assay for the CFTR-G551D mutation; conditions: HEK293 cells expressing CFTR G551D and YFP reporter; forskolin 10.67 μM
# T7 construct: expressed in transfected cells; host or cells: HEK293 cells, reverse-transfected with plasmid vectors
# T7 sequence (P13569 whole entry G551D): as the sequence (P13569 whole entry S549N) above, with N549S, G551D counted along it
# Source text: as §1, §2, §3
SMILES,% Activation (CFTR ΔF508 mutant) [%],EC50 (CFTR ΔF508 mutant) [nM],% Activation (CFTR G551D mutant) [%],EC50 (CFTR G551D mutant) [nM],other results
"Nc1cc(S(=O)(=O)c2ccc(OC(F)(F)F)cc2)cnc1-c1nnc(CO)o1 [Compound 1, (5-{3-amino-5-[4-(trifluoromethoxy)benzene-1-sulfonyl]pyridin-2-yl}-1,3,4-oxadiazol-2-yl)methanol]",113.82,5.57,37.7,> 10000,EC50 (CFTR ΔF508): 40 nM; % Activation (CFTR-S549N): 75.4%; EC50 (CFTR-S549N): 275 nM; % Activation (CFTR-R117H): 88.7%; EC50 (CFTR-R117H): 184 nM; % Activation (CFTR-G178R): 67.2%; EC50 (CFTR-G178R): 196 nM; % Activation (CFTR-G1349D): 72.8%; EC50 (CFTR-G1349D): 137 nM
"CC(O)(c1nnc(-c2ncc(S(=O)(=O)c3ccc(OC(F)(F)F)cc3)cc2N)o1)C(F)(F)F (centres unmarked) [Compound 3, 2-(5-{3-amino-5-[4-(trifluoromethoxy)benzene-1-sulfonyl]pyridin-2-yl}-1,3,4-oxadiazol-2-yl)-1,1,1-trifluoropropan-2-ol]",120.51,2.36,49.0,181,% Activation (CFTR-S549N): 56.3%; EC50 (CFTR-S549N): 55.9 nM; % Activation (CFTR-R117H): 89.0%; EC50 (CFTR-R117H): 35.5 nM; % Activation (CFTR-G178R): 57.4%; EC50 (CFTR-G178R): 1440 nM; % Activation (CFTR-G1349D): 58.6%; EC50 (CFTR-G1349D): 44.9 nM
"Nc1cc(S(=O)(=O)c2ccc(OC(F)(F)F)cc2)cnc1-c1nnc(C(O)C(F)(F)F)o1 (centres unmarked) [Compound 4, 1-(5-{3-amino-5-[4-(trifluoromethoxy)benzene-1-sulfonyl]pyridin-2-yl}-1,3,4-oxadiazol-2-yl)-2,2,2-trifluoroethan-1-ol]",103.69,1.8,34.3,> 6770,EC50 (CFTR ΔF508): 6 nM
"Nc1cc(S(=O)(=O)c2ccc(OC(F)(F)F)cc2)cnc1-c1ncc(CO)s1 [Compound 5, (2-{3-amino-5-[4-(trifluoromethoxy)benzene-1-sulfonyl]pyridin-2-yl}-1,3-thiazol-5-yl)methanol]",58.29,> 667,0.3,> 10000,
"CN(Cc1ccccc1)S(=O)(=O)c1cnc(-c2nnc(CO)o2)c(N)c1 [Compound 60, 5-amino-N-benzyl-6-[5-(hydroxymethyl)-1,3,4-oxadiazol-2-yl]-N-methylpyridine-3-sulfonamide]",122.9,15.3,,,
"Nc1cc(S(=O)(=O)c2ccccc2)cnc1-c1nnc(CO)o1 [Compound 61, {5-[3-amino-5-(benzenesulfonyl)pyridin-2-yl]-1,3,4-oxadiazol-2-yl}methanol]",97.36,97.4,,,
"Nc1cc(S(=O)(=O)c2ccc(C(F)(F)F)cc2)cnc1-c1nnc(CO)s1 [Compound 62, (5-{3-amino-5-[4-(trifluoromethyl)benzene-1-sulfonyl]pyridin-2-yl}-1,3,4-thiadiazol-2-yl)methanol]",113,< 0.44,,,

# Further lines, with some results ahead:
% Activation (CFTR ΔF508 mutant) [%],EC50 (CFTR ΔF508 mutant) [nM],% Activation (CFTR G551D mutant) [%],EC50 (CFTR G551D mutant) [nM],SMILES,other results
109.95,< 0.39,,,"Nc1cc(S(=O)(=O)c2ccc(OC(F)(F)F)cc2)c(Br)nc1-c1nnc(CO)o1 [Compound 63, (5-{3-amino-6-bromo-5-[4-(trifluoromethoxy)benzene-1-sulfonyl]pyridin-2-yl}-1,3,4-oxadiazol-2-yl)methanol]",
122,< 0.46,,,"Nc1cc(S(=O)(=O)c2ccc(OC(F)(F)F)cc2)c(Cl)nc1-c1nnc(CO)o1 [Compound 64, (5-{3-amino-6-chloro-5-[4-(trifluoromethoxy)benzene-1-sulfonyl]pyridin-2-yl}-1,3,4-oxadiazol-2-yl)methanol]",
106.55,< 1.05,,,"CC(C)c1ccccc1S(=O)(=O)c1cnc(-c2nnc(CO)o2)c(N)c1 [Compound 65, (5-{3-amino-5-[2-(propan-2-yl)benzene-1-sulfonyl]pyridin-2-yl}-1,3,4-oxadiazol-2-yl)methanol]",
<1.18,,,,"Nc1c(-c2nnc(CO)o2)ncc(S(=O)(=O)c2ccc(OC(F)(F)F)cc2)c1Br [Compound 66, (5-{3-amino-4-bromo-5-[4-(trifluoromethoxy)benzene-1-sulfonyl]pyridin-2-yl}-1,3,4-oxadiazol-2-yl)methanol]",

# Reference: patent publication US10138227B2, “Heteroaryl substituted pyridines and methods of use” (AbbVie S.à.r.l., priority 2016, dated 2018)
